Assay results reported in patent US11672795B2, “Compositions and methods for treating pulmonary vascular disease” (UNIVERSITY OF PITTSBURGH-OF THE COMMONWEALTH SYSTEM OF …, priority 2016, dated 2023).
Entries after “also recorded” stand apart in the source; their conditions may differ.

Tests used:
Assay type in all cases: in vivo, rat
[1] = test system: monocrotaline-exposed rats; assay: Right heart catheterization and right ventricular weight (RVSP, Fulton index) in monocrotaline-exposed rats; details: for right ventricular remodeling (Fulton index, RV/LV+S) / right ventricular systolic pressure (RVSP): daily i.p. 10 mg/kg, C968 from day 2, CB839 from day 7; for hemodynamic and histologic indices of PH: BAPN or verteporfin alone; for PAH severity as quantified by RVSP: daily BAPN or daily i.p. verteporfin 25 mg/kg
Experimental: Monocrotaline-treated rats: As we previously described (7, 8), male Sprague-Dawley rats (10-14 week old) were injected with 60 mg/kg monocrotaline at time 0; at 0-4 weeks post-exposure, right heart catheterization was performed followed by harvest of lung tissue for RNA extraction or paraffin embedding, as described below (section: Tissue harvest).
After physiological measurements by direct right ventricular puncture, the pulmonary vessels were gently flushed with 1 cc of saline to remove the majority of blood cells, prior to harvesting cardiopulmonary tissue. The heart was removed, followed by dissection and weighing of the right ventricle (RV) and of the left ventricle+septum (LV+S). Organs were then harvested for histological preparation or flash frozen in liquid N2 for subsequent homogenization and extraction of RNA and/or protein. To further process lung tissue specifically, prior to excision, lungs were flushed with PBS at constant low pressure (approximately 10 mmHg) via right ventricular cannulation, followed by tracheal inflation of the left lung with 10% neutral-buffered formalin (Sigma-Aldrich) at a pressure of approximately 20 cm H2O. After excision and 16 hours of fixation in 10% neutral-buffered formalin at 25° C., lung tissues were paraffin embedded via an ethanol-xylene dehydration series, before being sliced into 5 μm sections (Hypercenter XP System and Embedding Center, Shandon).
(§1) To induce PH, male Sprague-Dawley rats (10-14 week old) were injected intraperitoneally with 60 mg/kg monocrotaline (Sigma-Aldrich). After two days, rats underwent intraperitoneal injection daily with 25 mg/kg of verteporfin (Active Biochemicals Company, Ltd) solubilized in 5% dimethyl sulfoxide (DMSO, Sigma-Aldrich). Two days after the last injection on day 21 post-monocrotaline injection, right heart catheterization was performed followed by harvest of lung tissue and CD31+ cells for RNA or protein extraction, paraffin embedding, or cryopreservation with OCT (Sigma-Aldrich), as we described (2).
(§2) To induce PH, male Sprague-Dawley rats (10-14 week old) were injected intraperitoneally with 60 mg/kg monocrotaline (Sigma-Aldrich). After two days, serial intraperitoneal injections were given daily of C968 (10 mg/kg, Sigma-Aldrich), and after seven days post-monocrotaline injection, serial intraperitoneal injections were given daily of CB839 (10 mg/kg, Selleck Chemicals). Two days after the last injection on day 21 post-monocrotaline injection, right heart catheterization was performed followed by harvest of lung tissue and CD31+ cells for RNA or protein extraction, paraffin embedding, or cryopreservation with OCT (Sigma-Aldrich), as we described (2).
as §2, with “Finally, to investigate whether glutaminolysis itself is essential for promoting pulmonary vascular proliferation in PH, two separate pharmacologic inhibitors of GLS1 (C968 and CB-839) were administered in monocrotaline-exposed rats using either a disease prevention (FIG. 5A) or disease reversal (FIG. 5B) dosing protocol. To” for “To”, “C968 or CB-839” for “C968”, “C968 or CB-839” for “CB839”, “as” for “as we”, “previously (Bertero T, et al. Cell Reports. 2015; 13(5):1016-32).” for “(2).”

[2] = test system: monocrotaline-exposed rats; assay: Histology and immunofluorescence of lung sections of monocrotaline-exposed rats; details: for pulmonary arteriolar muscularization / pulmonary arteriolar remodeling / Ki67/PCNA positive cells in CD31/vWF+ endothelial compartment / Ki67/PCNA positive cells in α-SMA+ medial (smooth muscle) compartment: daily i.p. 10 mg/kg; for pulmonary arteriolar muscularization / pulmonary arteriolar remodeling: C968 from day 2, CB839 from day 7; for CD31/PCNA and α-SMA/PCNA double-positive cells (vascular endothelial and smooth muscle proliferation) / GLS1 vascular intensity / YAP1+ cells / vessel thickness and muscularization (vascular remodeling): daily BAPN or daily i.p. verteporfin 25 mg/kg
Experimental: Lung sections (5 μm) were deparaffinized and high temperature antigen retrieval was performed, followed by blocking in TBS/BSA 5%, 10% donkey serum and exposure to primary antibody and biotinylated secondary antibody (Vectastain ABC kit, Vector Labs) for immunohistochemistry or Alexa 488, 568 and 647-conjugated secondary antibodies (Thermo Fisher Scientific) for immunofluorescence. A primary antibody against YAP1 (#4912; 1/200 or sc101199; 1/50) were obtained from Cell Signaling and Santa Cruz Biotechnology respectively. Primary antibodies against, GLS1 (ab156876; 1/100), PC (ab115579; 1/100), LDHA (ab47010; 1/200) and α-SMA (ab32575; 1/1000) were purchased from Abcam. A primary antibody against CD31 (sc-1506; 1/100), was purchased from Santa Cruz Biotechnology. A primary antibody against PCNA (13-3900, 1/100) was purchased from Thermo Fisher Scientific. In most cases, color development was achieved by adding streptavidin-biotinylated alkaline phosphatase complex (Vector Labs) followed by Vector Red alkaline phosphatase substrate solution (Vector Labs). Levamisole was added to block endogenous alkaline phosphatase activity (Vector Labs). Pictures were obtained using an Olympus Bx51 microscope or ZEISS LSM Exciter confocal microscope. Small pulmonary vessels (<100 µm diameter) present in a given tissue section (>10 vessels/section) that were not associated with bronchial airways were selected for analysis (N>5 animals/group). Intensity of staining was quantified using ImageJ software (NIH). Degree of pulmonary arteriolar muscularization was assessed in paraffin-embedded lung sections stained for α-SMA by calculation of the proportion of fully and partially muscularized peripheral (<100 μm diameter) pulmonary arterioles to total peripheral pulmonary arterioles, as previously described (12). All measurements were performed blinded to condition.
as §1, §2

[3] = test system: monocrotaline-exposed rats; assay: Atomic force microscopy of pulmonary arteriolar stiffness in monocrotaline-exposed rats
Experimental: Rat lungs were inflated with 0.025 g of OCT by g of body weight, frozen on liquid nitrogen vapor and store at −80° C. Rat lung slices (10 μm thickness) were cut out from their glass slide and the fragment of glass containing the sample was glued on the bottom of a 50 mm dish (Willco Glass Bottom Dish). Before measurements the sample was first rinsed and after covered with 4 ml of PBS 1×. The mechanical properties of the samples were studied using a BioScope Catalyst atomic force microscope (Bruker) coupled with and optical microscope (Leica DMI6000B) that enables, by phase contrast, to pinpoint the areas of interest. For each sample, from five to a maximum of 9 vessels (<100 μm diameter) were analyzed using the “Point and Shoot” method, collecting from 35 to 80 force-distance curves at just as many discrete points. The experiments of microindentation were performed in PBS using a probe with a Borosilicate Glass spherical tip (5 μm of diameter) and a cantilever with a nominal spring constant of 0.06 N/m (Novascan). Indentations were carried out using a velocity of 2 μm/s, in relative trigger mode and by setting the trigger threshold to 2 nN. The apparent Young's modulus was calculated using the NanoScope Analysis 1.50 software (Bruker), fitting the force curves to the Hertz spherical indentation model and using a Poisson's ratio of 0.4. To avoid large indentation, a minimum and a maximum Force Fit Boundary of 5% and 25% respectively of the whole force curve was taken into account for the fit.

[4] = C968 from day 2, CB839 from day 7, 10 mg/kg
[5] = C968 from day 2, CB839 from day 7, listed as CB-839, 10 mg/kg
[6] = daily BAPN or daily i.p. verteporfin 25 mg/kg

O=C(Cc1cccc(OC(F)(F)F)c1)Nc1ccc(CCCCc2nnc(NC(=O)Cc3ccccn3)s2)nn1 [CB839]
right ventricular remodeling (Fulton index, RV/LV+S) [1]: significantly decreased
right ventricular systolic pressure (RVSP) [1]: significantly decreased
pulmonary arteriolar muscularization [2]: significantly decreased
pulmonary arteriolar remodeling [2]: significantly decreased
Ki67/PCNA positive cells in CD31/vWF+ endothelial compartment [2, 4]: reduced
Ki67/PCNA positive cells in α-SMA+ medial (smooth muscle) compartment [2, 4]: reduced
Ki67/PCNA positive cells in CD31/vWF+ endothelial compartment [2, 5]: decreased
Ki67/PCNA positive cells in α-SMA+ medial (smooth muscle) compartment [2, 5]: decreased
pulmonary arteriolar (<100 μm diameter) stiffness, atomic force microscopy ([3]; daily CB839 vs vehicle): decreased

N#CCCN [BAPN, β-aminoproprionitrile]
hemodynamic and histologic indices of PH [1]: improvement
PAH severity as quantified by RVSP [1]: in a lower extent BAPN ameliorated
CD31/PCNA and α-SMA/PCNA double-positive cells (vascular endothelial and smooth muscle proliferation) [2]: decreased
GLS1 vascular intensity [2]: decreased
YAP1+ cells [2]: decreased
vessel thickness and muscularization (vascular remodeling) [2]: decreased; also recorded: ameliorated
pulmonary arteriolar (<100 μm diameter) stiffness, atomic force microscopy [3, 6]: decreased

C=Cc1c(C)c2cc3nc(cc4[nH]c(cc5nc(cc1[nH]2)C(C)=C5CCC(=O)O)c(CCC(=O)OC)c4C)[C@@]1(C)C3=CC=C(C(=O)OC)[C@H]1C(=O)OC [Verteporfin, 3-[(23S,24R)-14-ethenyl-5-(3-methoxy-3-oxopropyl)-22,23-bis(methoxycarbonyl)-4,10,15,24-tetramethyl-25,26,27,28-tetraazahexacyclo[16.6.1.1^3,6.1^8,11.1^13,16.0^19,24]octacosa-1,3,5,7,9,11(27),12,14,16,18(25),19,21-dodecaen-9-yl]propanoic acid]
hemodynamic and histologic indices of PH [1]: robust improvement
PAH severity as quantified by RVSP [1]: ameliorated
PAH severity as quantified by RVSP ([1]; listed as verteporfin): reductions
right ventricular remodelling (Fulton index) ([1]; daily i.p. verteporfin 25 mg/kg): reductions
CD31/PCNA and α-SMA/PCNA double-positive cells (vascular endothelial and smooth muscle proliferation) [2]: decreased
GLS1 vascular intensity [2]: decreased
YAP1+ cells [2]: decreased
vessel thickness and muscularization (vascular remodeling) [2]: decreased
CD31/PCNA and α-SMA/PCNA double-positive cells (vascular endothelial and smooth muscle proliferation) ([2]; listed as verteporfin): improved
vessel thickness and muscularization (vascular remodeling) ([2]; listed as verteporfin): reductions
pulmonary arteriolar (<100 μm diameter) stiffness, atomic force microscopy [3, 6]: decreased

CN(C)c1ccc(C2Nc3ccc4ccccc4c3C3=C2C(=O)CC(C)(C)C3)cc1Br (stereo not shown) [C968, 5-(3-Bromo-4-(dimethylamino)phenyl)-2,2-dimethyl-2,3,5,6-tetrahydrobenzo[a]phenanthridin-4(1H)-one]
right ventricular remodeling (Fulton index, RV/LV+S) [1]: significantly decreased
right ventricular systolic pressure (RVSP) [1]: significantly decreased
PAH severity, as quantified by vascular remodeling, arteriolar muscularization, RVSP and right ventricular hypertrophy ([1]; prevention experiment (C968) or reversal study): ameliorated
pulmonary arteriolar muscularization [2]: significantly decreased
pulmonary arteriolar remodeling [2]: significantly decreased
Ki67/PCNA positive cells in CD31/vWF+ endothelial compartment [2, 4]: reduced; also recorded: decreased
Ki67/PCNA positive cells in α-SMA+ medial (smooth muscle) compartment [2, 4]: reduced; also recorded: decreased
